Tests used:
Assay type in all cases: cell-based
H1N1 influenza virus = system: H1N1 influenza virus
[1] = system: herpes simplex virus type 1 (strain L-2)
[2] = system: vesicular stomatitis virus (reference strain)

KKRKRKRKR [derivative 54]
0%: % cytoprotective antiviral activity, Inf (H1N1 influenza virus) | % cytoprotective antiviral activity, Herp [1] | % cytoprotective antiviral activity, Vesic [2]
